In PMC11901578, “Polymethoxyflavones and Bone Metabolism” (Nutrients, 2025):
Like-named read-outs stand apart in the source and are kept apart here.

Tests used:
estrogen receptor-α = estrogen receptor-α (Homo sapiens, UniProt P03372); test: Estrogen receptor-binding assay; conditions: unpublished data
From the text: (§1) An anticipated adverse effect of long-term flavonoid supplementation is an estrogen-like effect. Although isoflavones, such as genistein and daidzein, have estrogenic effects via binding to estrogen receptors, there are no reports on polymethoxyflavones. […] On the other hand, excessive long-term intake of PMFs may indicate some toxicity, since a high concentration of PMFs may lead to inhibited cell growth or cell death in various cell types, including osteoblasts, endothelial cells, and cancer cell lines.

estrogen receptor-β = estrogen receptor-β (Homo sapiens, UniProt Q92731); test: Estrogen receptor-binding assay; conditions: unpublished data
Sequence of estrogen receptor-β (Q92731 whole entry): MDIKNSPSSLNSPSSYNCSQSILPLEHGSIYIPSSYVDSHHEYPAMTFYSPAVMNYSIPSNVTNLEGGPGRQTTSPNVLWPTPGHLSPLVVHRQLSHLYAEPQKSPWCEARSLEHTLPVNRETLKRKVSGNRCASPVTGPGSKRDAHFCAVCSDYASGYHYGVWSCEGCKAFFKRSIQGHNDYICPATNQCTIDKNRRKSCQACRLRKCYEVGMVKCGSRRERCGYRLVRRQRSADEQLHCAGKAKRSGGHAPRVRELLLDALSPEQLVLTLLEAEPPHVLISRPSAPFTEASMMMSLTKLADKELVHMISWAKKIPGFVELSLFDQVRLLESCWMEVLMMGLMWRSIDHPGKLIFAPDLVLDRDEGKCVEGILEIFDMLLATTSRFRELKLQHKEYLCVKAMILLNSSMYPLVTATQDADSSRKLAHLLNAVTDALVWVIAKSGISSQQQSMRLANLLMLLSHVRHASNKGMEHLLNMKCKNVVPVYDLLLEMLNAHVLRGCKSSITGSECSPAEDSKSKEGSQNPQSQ
From the text: as §1

[1] = system: osteoclast differentiation in co-cultures of osteoblasts and bone marrow cells; conditions: cited from earlier work
[2] = system: bone resorption in mouse bone organ cultures; design: method as in PMID 21258168, PMID 22850615; conditions: 60 μM; cited from earlier work
[3] = system: osteoclast differentiation in co-culture system; conditions: 30 μM, cited from earlier work
[4] = system: bone resorption in mouse calvarial or alveolar bone organ cultures; conditions: 30 μM, bone organ cultures; cited from earlier work
Raw264.7 = conditions: cited from earlier work
IKKβ = system: IKKβ; design: method as in PMID 21258168, PMID 22850615; conditions: in vitro kinase assay; cited from earlier work
[5] = system: PGE2 production in osteoblasts; design: method as in PMID 21258168, PMID 22850615; conditions: with downregulation of COX-2; cited from earlier work
[6] = system: human osteoblastic cell line MG-63; design: method as in PMID 34466066; conditions: 10 and 20 μg/mL (approximately 25 and 50 μM); cited from earlier work
[7] = system: ectopic bone formation in mice; design: method as in PMID 36816515; conditions: collagen sponge disk with BMP-2 (1 μg) and nobiletin (2.5 or 5 μg), fascia of back muscle; cited from earlier work
[8] = system: ovariectomized (OVX) mice; conditions: cited from earlier work
[9] = system: human periodontal ligament cells (HPDLCs); conditions: 12.5, 25, 50, and 100 μM, TNF- or IL-1-stimulated HPDLCs; cited from earlier work
[10] = system: alveolar bone loss in mice; conditions: cited from earlier work; for alveolar bone loss in mice, restored: LPS +; for decrease of alveolar bone mineral density (ABMD): co-injection with LPS (25 μg/mouse/day), three times every other day, LPS alone 9%
[11] = system: collagen-induced arthritic mice; conditions: cited from earlier work
[12] = system: MH7A human fibroblast-like synoviocytes (FLS); design: method as in PMID 31978425; conditions: 50 μM; cited from earlier work
human OA chondrocytes = system: human OA chondrocytes; design: method as in PMID 30938722; conditions: IL-1-stimulated human OA chondrocytes; cited from earlier work
DMM-OA mice = conditions: cited from earlier work
[13] = system: NF-κB signaling in chondrocytes; design: method as in PMID 31214026; conditions: 10, 20, and 40 μM; cited from earlier work
HL-60 cells = system: HL-60 cells; design: method as in PMID 23225422; conditions: read-out: IC50, anti-proliferative effect on HL-60 cells; cited from earlier work
[14] = system: human umbilical vein endothelial cells (HUVECs); design: method as in PMID 22707269; conditions: read-out: IC50, anti-proliferative effect on HUVECs; cited from earlier work
zebrafish embryos = system: zebrafish embryos; design: method as in PMID 22707269; conditions: 30 μM, cited from earlier work
[15] = system: bone marrow macrophages (BMMs); conditions: 50 μM; cited from earlier work
[16] = intraperitoneal 50 μM for 9 weeks
[17] = intraperitoneal 2 mg/mouse/day (approximately 67 mg/kg) for 4 weeks, Sham mice as 100%
[18] = subcutaneous 0.25 mg/day by mini-osmotic pump for 4 weeks

Sequence of estrogen receptor-α (P03372 whole entry): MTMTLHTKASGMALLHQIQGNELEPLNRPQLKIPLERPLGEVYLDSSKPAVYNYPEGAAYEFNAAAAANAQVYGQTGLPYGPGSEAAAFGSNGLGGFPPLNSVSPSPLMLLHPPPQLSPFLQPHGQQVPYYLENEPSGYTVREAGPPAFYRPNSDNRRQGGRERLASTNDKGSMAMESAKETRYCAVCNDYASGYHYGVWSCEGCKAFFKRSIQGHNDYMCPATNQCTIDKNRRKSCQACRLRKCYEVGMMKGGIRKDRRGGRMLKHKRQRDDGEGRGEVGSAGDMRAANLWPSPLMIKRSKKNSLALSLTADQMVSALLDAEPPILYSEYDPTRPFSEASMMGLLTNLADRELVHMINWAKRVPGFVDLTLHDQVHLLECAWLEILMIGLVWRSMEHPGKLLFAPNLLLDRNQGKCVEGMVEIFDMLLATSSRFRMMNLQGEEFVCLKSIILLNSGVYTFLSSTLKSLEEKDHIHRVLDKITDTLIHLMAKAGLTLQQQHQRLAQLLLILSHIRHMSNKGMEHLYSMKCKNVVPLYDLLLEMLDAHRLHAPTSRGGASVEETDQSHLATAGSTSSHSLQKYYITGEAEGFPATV

COc1ccc(-c2cc(=O)c3c(OC)c(OC)c(OC)c(OC)c3o2)cc1OC [Nobiletin, 3′,4′,5,6,7,8-Hexamethoxyflavone]
binding to estrogen receptor-α (estrogen receptor-α): unable to bind
binding to estrogen receptor-β (estrogen receptor-β): unable to bind
inhibition of IL-1-induced osteoclast differentiation ([1]; 10 μM): 20%
inhibition of IL-1-induced osteoclast differentiation ([1]; 30 μM): 85%
inhibition of IL-1-induced osteoclast differentiation ([1]; 60 μM): 100%
IC50 ([1]; IL-1 +, read-out: IC50, osteoclast differentiation in co-culture system): 33 µM
IL-1-induced bone resorption [2]: completely suppressed
LPS-induced osteoclast differentiation ([3]; co-cultures): significantly suppressed
osteoclast differentiation in co-culture system, inhibited ([3]; LPS +): 70% inhibited [8]
LPS-induced bone-resorbing activity [4]: significantly suppressed
RANKL-induced osteoclast differentiation (Raw264.7; 4, 20, and 50 μM, Raw264.7): suppressed RANKL-induced osteoclast differentiation in a dose-dependent manner
osteoclast differentiation in Raw264.7 cultures, inhibited (Raw264.7; RANKL +, 30 μM): 86% inhibited [8]
IC50 (Raw264.7; RANKL +, read-out: IC50, osteoclast differentiation in Raw264.7 cultures): 8 µM
IKKβ kinase activity (IKKβ): directly inhibited
PGE2 production [5]: suppressed
osteoblast differentiation and mineralization [6]: promoted osteoblast differentiation and mineralization in a dose-dependent manner
increase of bone formation (BV/TV) relative to BMP-2 alone [7]: 33%
effect on body weight and the uterus [8]: without affecting body weight and the uterus
BMD restored [8, 16]: 4.5%
BV/TV restored [8, 16]: 16%
trabecular separation (Tb.Sp) restored [8, 16]: 30%
bone mineral density (BMD) of the femur restored [8, 17]: 6%
bone volume/tissue volume (BV/TV) of the femur restored [8, 17]: 34%
trabecular BMD in the distal femur restored ([8]; oral 50 and 100 mg/kg for 12 weeks, similar effects at both dosages): 8%
distal BMD in the femur restored [8, 18]: 5%
whole BMD in the femur restored [8, 18]: 4%
expression of inflammatory cytokines (CXCL10, CCL2, IL-8), MMP-1, MMP-3, and COX-2 [9]: dose-dependently reduced
alveolar bone loss in mice, restored ([10]; 30 μg/mouse): 5% restored [8]
alveolar bone loss in mice, restored ([10]; 100 μg/mouse): 6% restored [8]
alveolar bone loss in mice, restored ([10]; 300 μg/mouse): 9% restored [8]
decrease of alveolar bone mineral density (ABMD) ([10]; 3 μg/mouse/day): 3%
decrease of alveolar bone mineral density (ABMD) ([10]; 100 μg/mouse/day): 4%
decrease of alveolar bone mineral density (ABMD) ([10]; 300 μg/mouse/day): 1%
gene expression and production of aggrecanase-1 and -2 ([11]; collagen-induced arthritic mice): downregulate
decrease of severity of arthritis ([11]; intraperitoneal 15, 30, and 60 mg/kg): 45%
IL-21-mediated inflammatory response [12]: suppressed
overproduction of inflammatory mediators (PGE2, NO, COX-2, iNOS, TNF-α, IL-6, MMPs) (human OA chondrocytes): significantly suppressed
cartilage destruction and synovitis (DMM-OA mice; DMM-OA mice, intraperitoneal 20 mg/kg every 2 days for 8 weeks): inhibited cartilage destruction and synovitis
cartilage destruction and subchondral bone thickening (DMM-OA mice; DMM-OA model mice): prevented cartilage destruction and thickening of the subchondral bone
IL-1-induced NF-κB signaling [13]: inhibited IL-1-induced NF-κB signaling in a dose-dependent manner
IC50 (HL-60 cells): 52 µM
IC50 [14]: 62 µM
anti-angiogenic effect on zebrafish embryos, inhibited (zebrafish embryos; listed as nobiletin): ~63%
anti-angiogenic effect on zebrafish embryos, inhibited (zebrafish embryos): 63% inhibited [47]
cytotoxicity to bone marrow macrophages (BMMs) [15]: cytotoxic
